Assay results taken from ChEMBL document CHEMBL1201862, “PubChem BioAssay data set” (2004).
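The compound was tested at five concentrations on cells cultured in 96-well plates, with a 48-hour exposure period. GI50 = concentration required for 50% inhibition of growth.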 Activity calls are given as the source filed them. Rule as the data show it: active = GI50 up to about 1.1 µM and inactive = higher.

What was measured:
Test in all cases: NCI-60 cell line screen, 48 h
[1] = test system: NCI-H23
[2] = test system: HOP-92
[3] = test system: SW-620
[4] = test system: SK-MEL-5
[5] = test system: CCRF-CEM
[6] = test system: SN12C
[7] = test system: KM12
[8] = test system: COLO 205
[9] = test system: NCI-H460
[10] = test system: SNB-19
[11] = test system: MDA-N
[12] = test system: NCI-H522
[13] = test system: A498
[14] = test system: SK-MEL-2
[15] = test system: UACC-257
[16] = test system: T47D
[17] = test system: K562
[18] = test system: 786-0
[19] = test system: OVCAR-3
[20] = test system: HCT-15
[21] = test system: Hs-578T
[22] = test system: NCI-H226
[23] = test system: EKVX
[24] = test system: DU-145
[25] = test system: RXF 393
[26] = test system: CAKI-1
[27] = test system: TK-10
[28] = test system: OVCAR-4
[29] = test system: UACC-62
[30] = test system: MDA-MB-231
[31] = test system: OVCAR-8
[32] = test system: SNB-75
[33] = test system: A549
[34] = test system: Malme-3M
[35] = test system: HCC 2998
[36] = test system: HL-60
[37] = test system: HT-29
[38] = test system: LOX IMVI
[39] = test system: NCI/ADR-RES
[40] = test system: MDA-MB-435
[41] = test system: UO-31
[42] = test system: IGROV-1
[43] = test system: HCT-116
[44] = test system: U-251
[45] = test system: ACHN
[46] = test system: SK-OV-3
[47] = test system: BT-549
[48] = test system: PC-3
[49] = test system: M14
[50] = test system: SF-295
[51] = test system: SF-539
[52] = test system: MOLT-4
[53] = test system: RPMI-8226
[54] = test system: OVCAR-5
[55] = test system: HOP-62
[56] = test system: MCF7
[57] = test system: SF-268
[58] = test system: SK-MEL-28
[59] = test system: SR

Measured: GI50

CCCCCCCCSC1=C(Cl)C(=O)C(OC)=C(OC)C1=O
active: [53] 0.52 µM
6.34 µM: [20]
inactive: [1] 13 µM | [2] 17 µM | [3] 10.6 µM | [4] 4.74 µM | [5] 5.68 µM | [6] 5.09 µM | [7] 7.53 µM | [8] 17.1 µM | [9] 15.4 µM | [10] 10.5 µM | [11] 3.82 µM | [12] 2.47 µM | [13] 12.3 µM | [14] 15.4 µM | [15] 5.6 µM | [16] 5.08 µM | [17] 9.71 µM | [18] 12.5 µM | [19] 7.14 µM | [21] 20.7 µM | [22] 12.4 µM | [23] 10.9 µM | [24] 15.1 µM | [25] 13.2 µM | [26] 12.3 µM | [27] 14.1 µM | [28] 11.1 µM | [29] 10.3 µM | [30] 12.4 µM | [31] 12 µM | [32] 19.1 µM | [33] 17.9 µM | [34] 7.73 µM | [35] 15.2 µM | [36] 2.11 µM | [37] 16.9 µM | [38] 4.57 µM | [39] 17.4 µM | [40] 4.45 µM | [41] 12.1 µM | [42] 14.1 µM | [43] 4.83 µM | [44] 10.5 µM | [45] 10 µM | [46] 23.1 µM | [47] 14 µM | [48] 14.2 µM | [49] 2.16 µM | [50] 12.5 µM | [51] 14.2 µM | [52] 3.12 µM | [54] 6.67 µM | [55] 17.2 µM | [56] 3.94 µM | [57] 12.4 µM

COc1cc2c(c3c1c(=O)c1ccccc1n3C)C=CC1(CCCC1)O2
active: [38] 1.02 µM
14.1 µM: [20]
inactive: [58] 13.9 µM | [1] 12.9 µM | [2] 16.6 µM | [3] 20.4 µM | [4] 12.9 µM | [5] 9.82 µM | [6] 19.1 µM | [7] 7.05 µM | [8] 13.6 µM | [9] 10.2 µM | [10] 18.5 µM | [11] 15.3 µM | [12] 16.3 µM | [13] 18 µM | [14] 14 µM | [15] 15.9 µM | [17] 7.5 µM | [18] 6.56 µM | [19] 13.2 µM | [21] 2.61 µM | [22] 16 µM | [23] 13.5 µM | [24] 17.6 µM | [59] 7.94 µM | [25] 5.61 µM | [26] 2.54 µM | [27] 15.6 µM | [28] 12.2 µM | [29] 13.1 µM | [30] 12.4 µM | [31] 18.4 µM | [32] 11.8 µM | [33] 19.7 µM | [34] 16.4 µM | [35] 21.8 µM | [36] 7.29 µM | [37] 7.05 µM | [39] 23.7 µM | [40] 16.4 µM | [42] 12.9 µM | [43] 15.1 µM | [44] 12.8 µM | [45] 16.3 µM | [46] 21.6 µM | [47] 10.1 µM | [48] > 10 µM | [49] 13.3 µM | [50] 3.63 µM | [51] 4.16 µM | [52] 26.2 µM | [53] 1.81 µM | [54] 12.9 µM | [55] 12.8 µM | [56] 16 µM | [57] 18.8 µM
